Reference: patent publication US20110281808A1, “Composition and Method for Increasing Pre Workout Thermogenics” (ALLMAX NUTRITION INC., priority 2010, published 2011)

How the values were obtained:
[1] = oral administration of naringin with Yerba Mate, half life of caffeine and thermogenesis; format: in vivo; conditions: oral administration together with Yerba Mate (source of caffeine)
[2] = humans, from grapefruit juice; cited from earlier work
[3] = oral administration of 500 mg hordenine to horses; cited from earlier work
[4] = after ingestion, horses; cited from earlier work
[5] = test system: central nervous system; conditions: cats under anaesthesia; cited from earlier work

C[C@@H]1O[C@@H](O[C@H]2[C@H](Oc3cc(O)c4c(c3)O[C@H](c3ccc(O)cc3)CC4=O)O[C@H](CO)[C@@H](O)[C@@H]2O)[C@H](O)[C@H](O)[C@H]1O [naringin, 4′, 5,7-tri-hydroxyflavonone 7-rhamno-glucoside]
effect on half life of caffeine and thermogenesis [1]: acts synergistically with Yerba Mate

O=C1C[C@@H](c2ccc(O)cc2)Oc2cc(O)cc(O)c21 [naringenin]
bioavailability [2]: bioavailable from grapefruit juice

CN(C)CCc1ccc(O)cc1 [hordenine, N,N-dimethyl-4-hydroxyphenylethylamine]
heart rate [3]: slight increase in heart rate | half-life [4]: 24 min | muscle tone / spinal cord stimulation [5]: increases muscle tone
